From patent publication US8003649B2 (AstraZeneca AB, priority 2007, dated 2011)

The molecules below were run against T1, Androgen Receptor (AR) (Homo sapiens, UniProt P10275, T878A) (assay: LNCaP Androgen Receptor Down-regulation Cell Assay (immunofluorescence end point)). Conditions: LNCaP prostate carcinoma cells, compound incubation 20-22 hours, 50% reduction of the AR signal; read-out: Androgen Receptor Down-regulation Assay (a) IC50/μM.
T1 construct: cell based immuno-fluorescence assay using the LNCaP prostate epithelial cell line; endogenous in cells; host or cells: LNCaP clone FGC (ATCC CRL-1740)
T1 sequence (P10275 1-920 T878A): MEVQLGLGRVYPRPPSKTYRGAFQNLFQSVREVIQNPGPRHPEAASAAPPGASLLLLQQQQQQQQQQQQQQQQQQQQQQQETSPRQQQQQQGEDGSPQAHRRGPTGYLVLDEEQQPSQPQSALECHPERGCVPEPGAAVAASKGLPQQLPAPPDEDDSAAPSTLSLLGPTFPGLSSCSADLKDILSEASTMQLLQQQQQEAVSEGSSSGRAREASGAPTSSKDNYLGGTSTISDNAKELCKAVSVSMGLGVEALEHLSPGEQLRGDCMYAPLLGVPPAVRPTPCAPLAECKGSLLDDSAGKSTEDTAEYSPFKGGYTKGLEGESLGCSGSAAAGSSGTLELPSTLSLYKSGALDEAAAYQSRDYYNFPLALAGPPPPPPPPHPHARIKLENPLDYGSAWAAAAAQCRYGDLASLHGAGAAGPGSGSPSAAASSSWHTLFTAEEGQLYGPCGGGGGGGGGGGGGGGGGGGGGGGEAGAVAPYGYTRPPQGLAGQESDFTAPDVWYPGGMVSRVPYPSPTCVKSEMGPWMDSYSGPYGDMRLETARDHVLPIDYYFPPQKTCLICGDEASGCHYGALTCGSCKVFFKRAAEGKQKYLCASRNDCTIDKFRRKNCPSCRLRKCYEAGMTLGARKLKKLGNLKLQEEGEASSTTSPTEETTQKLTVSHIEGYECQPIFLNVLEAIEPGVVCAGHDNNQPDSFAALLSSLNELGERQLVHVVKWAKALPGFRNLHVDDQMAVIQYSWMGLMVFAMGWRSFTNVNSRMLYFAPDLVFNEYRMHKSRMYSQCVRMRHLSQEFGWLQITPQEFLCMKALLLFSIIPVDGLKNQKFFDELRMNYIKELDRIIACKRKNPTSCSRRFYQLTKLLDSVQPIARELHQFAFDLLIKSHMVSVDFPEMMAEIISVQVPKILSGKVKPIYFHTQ
Format: cell-based
Summary of the method: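 LNCaP cells in medium with 5% charcoal-stripped FBS were plated overnight, then treated with a compound dilution series for 20-22 h at 37° C. After fixation, permeabilisation and immunostaining, AR-associated green fluorescence was quantified by laser-scanning microplate cytometry; AR down-regulation expressed as IC50 from fitted dose-response curves.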
Molecule `FC(F)c1nnc2ccc(N3CCN(Cc4c[nH]c5ccc(Cl)cc45)CC3)nn12` [Example 287] has a DC50 of 2 µM. In the case of `FC(F)c1nnc2ccc(N3CCN(Cc4c[nH]c5ccc(Br)cc45)CC3)nn12` [Example 288], the DC50 is reported as 3.3 µM. In the case of `FC(F)c1nnc2ccc(N3CCN(Cc4c[nH]c5cccc(Cl)c45)CC3)nn12` [Example 289], the DC50 is reported as 2.7 µM. `Fc1ccc2[nH]cc(CN3CCN(c4ccc5nnc(C(F)F)n5n4)CC3)c2c1` [Example 290] showed a DC50 of 5.8 µM. In the case of `FC(F)c1nnc2ccc(N3CCN(Cc4c(Cl)[nH]c5ccccc45)CC3)nn12` [Example 291], the DC50 is reported as > 9.7 µM. Work on `Fc1ccc2c(CN3CCN(c4ccc5nnc(C(F)F)n5n4)CC3)c[nH]c2c1` [Example 292] yielded a DC50 of 7 µM. `FC(F)(F)c1nnc2ccc(N3CCC(COC4CCOCC4)CC3)nn12` [Example 294, 6-[4-[(tetrahydro-2H-pyran-4-yloxy)methyl]piperidin-1-yl]-3-(trifluoromethyl)[1,2,4]triazolo[4,3-b]pyridazine] gave a DC50 of 9.5 µM. `FC(F)(F)c1nnc2ccc(N3CCC(COCC4CC4)CC3)nn12` [Example 295] showed a DC50 of 3.4 µM. Molecule `COCCOCC1CCN(c2ccc3nnc(C(F)(F)F)n3n2)CC1` [Example 296] has a DC50 of 2.1 µM. Work on `CC(C)OCC1CCN(c2ccc3nnc(C(F)(F)F)n3n2)CC1` [Example 298] yielded a DC50 of 5.7 µM. `FC(F)(F)c1nnc2ccc(N3CCC(c4noc(-c5cccc(Cl)c5)n4)CC3)nn12` [Example 299] showed a DC50 of 0.84 µM. `Fc1ccc(-c2nc(C3CCN(c4ccc5nnc(C(F)(F)F)n5n4)CC3)no2)cc1` [Example 300] was tested, and the DC50 was 1 µM. `FC(F)(F)c1nnc2ccc(N3CCC(c4noc(-c5ccccc5)n4)CC3)nn12` [Example 301] showed a DC50 of 1.8 µM. With `Fc1cccc(-c2nc(C3CCN(c4ccc5nnc(C(F)(F)F)n5n4)CC3)no2)c1` [Example 302] the DC50 was 1.1 µM. `N#Cc1cccc(-c2nc(C3CCN(c4ccc5nnc(C(F)(F)F)n5n4)CC3)no2)c1` [Example 303] was tested, and the DC50 was 5.8 µM. For `FC(F)(F)c1nnc2ccc(N3CCC(OCC4CC4)CC3)nn12` [Example 304, 6-[4-(cyclopropylmethoxy)piperidin-1-yl]-3-(trifluoromethyl)[1,2,4]triazolo[4,3-b]pyridazine], the DC50 was 1.8 µM. `C[C@H](c1ccc(C#N)cc1)N1CCN(c2ccc3nnc(C(F)(F)F)n3n2)CC1` [Example 307, 4-[(1R)-1-[4-[3-(trifluoromethyl)[1,2,4]triazolo[4,3-b]pyridazin-6-yl]piperazin-1-yl]ethyl]benzonitrile] showed a DC50 of 3.4 µM. `C[C@H](c1ccc(F)cc1)N1CCN(c2ccc3nnc(C(F)(F)F)n3n2)CC1` [Example 308, 6-[4-[(1R)-1-(4-fluorophenyl)ethyl]piperazin-1-yl]-3-(trifluoromethyl)[1,2,4]triazolo[4,3-b]pyridazine] was tested, and the DC50 was 1.4 µM. In the case of `CC(C)(c1ccc(F)cc1)N1CCN(c2ccc3nnc(C(F)(F)F)n3n2)CC1` [Example 309, 6-[4-[1-(4-fluorophenyl)-1-methylethyl]piperazin-1-yl]-3-(trifluoromethyl)[1,2,4]triazolo[4,3-b]pyridazine], the DC50 is reported as 1.6 µM. `OC1(c2cccc(F)c2)CCN(c2ccc3nnc(C(F)(F)F)n3n2)CC1` [Example 310, 4-(3-fluorophenyl)-1-[3-(trifluoromethyl)[1,2,4]triazolo[4,3-b]pyridazin-6-yl]piperidin-4-ol] was tested, and the DC50 was 3.2 µM. Work on `COc1ccc(C2(O)CCN(c3ccc4nnc(C(F)(F)F)n4n3)CC2)cc1` [Example 311] yielded a DC50 of 5 µM. In the case of `COc1cccc(C2(O)CCN(c3ccc4nnc(C(F)(F)F)n4n3)CC2)c1` [Example 312], the DC50 is reported as 2.6 µM. In the case of `OC1(c2cccc(Cl)c2)CCN(c2ccc3nnc(C(F)(F)F)n3n2)CC1` [Example 313], the DC50 is reported as 1.8 µM. `COc1ccccc1C1(O)CCN(c2ccc3nnc(C(F)(F)F)n3n2)CC1` [Example 314] gave a DC50 of 4.6 µM. Molecule `OC1(c2ccccc2Cl)CCN(c2ccc3nnc(C(F)(F)F)n3n2)CC1` [Example 315, 4-(2-chlorophenyl)-1-[3-(trifluoromethyl)[1,2,4]triazolo[4,3-b]pyridazin-6-yl]piperidin-4-ol] has a DC50 of 2 µM. `N#Cc1ccccc1C1(O)CCN(c2ccc3nnc(C(F)(F)F)n3n2)CC1` [Example 317, 2-[4-hydroxy-1-[3-(trifluoromethyl)[1,2,4]triazolo[4,3-b]pyridazin-6-yl]piperidin-4-yl]benzonitrile] was tested, and the DC50 was 4.1 µM. `OC1(c2cncc(C(F)(F)F)c2)CCN(c2ccc3nnc(C(F)(F)F)n3n2)CC1` [Example 320, 4-[5-(trifluoromethyl)pyridin-3-yl]-1-[3-(trifluoromethyl)[1,2,4]triazolo[4,3-b]pyridazin-6-yl]piperidin-4-ol] showed a DC50 of 8.6 µM. `COc1ccc(C2(O)CCN(c3ccc4nnc(C(F)(F)F)n4n3)CC2)cn1` [Example 321, 4-(6-methoxypyridin-3-yl)-1-[3-(trifluoromethyl)[1,2,4]triazolo[4,3-b]pyridazin-6-yl]piperidin-4-ol] was tested, and the DC50 was 8 µM. `Cc1ccnc(C2(O)CCN(c3ccc4nnc(C(F)(F)F)n4n3)CC2)c1` [Example 322, 4-(4-methylpyridin-2-yl)-1-[3-(trifluoromethyl)[1,2,4]triazolo[4,3-b]pyridazin-6-yl]piperidin-4-ol] was tested, and the DC50 was 9.6 µM. With `OC1(c2ccc(Cl)nc2)CCN(c2ccc3nnc(C(F)(F)F)n3n2)CC1` [Example 323, 4-(6-chloropyridin-3-yl)-1-[3-(trifluoromethyl)[1,2,4]triazolo[4,3-b]pyridazin-6-yl]piperidin-4-ol] the DC50 was > 8.1 µM. With `OC1(c2nccs2)CCN(c2ccc3nnc(C(F)(F)F)n3n2)CC1` [Example 324, 4-(1,3-thiazol-2-yl)-1-[3-(trifluoromethyl)[1,2,4]triazolo[4,3-b]pyridazin-6-yl]piperidin-4-ol] the DC50 was 5.9 µM. `FC(F)(F)c1nnc2ccc(N3CCC(c4c[nH]c5ncccc45)CC3)nn12` [Example 325, 6-[4-(1H-pyrrolo[2,3-b]pyridin-3-yl)piperidin-1-yl]-3-(trifluoromethyl)[1,2,4]triazolo[4,3-b]pyridazine] was tested, and the DC50 was > 1.2 µM. Work on `FC(F)(F)c1nnc2ccc(N3CCC(c4c[nH]c5ccncc45)CC3)nn12` [Example 326] yielded a DC50 of 2 µM. `FC(F)(F)c1nnc2ccc(N3CCC(c4c[nH]c5cnccc45)CC3)nn12` [Example 327] showed a DC50 of 1 µM. Work on `FC(F)(F)c1nnc2ccc(N3CCC(c4c[nH]c5cccnc45)CC3)nn12` [Example 328] yielded a DC50 of 0.75 µM. `COC(=O)c1ccccc1C1CCN(c2ccc3nnc(C(F)(F)F)n3n2)C1` (stereo not shown) [Example 333] showed a DC50 of 2.7 µM. With `COC(=O)c1cccc(C2CCN(c3ccc4nnc(C(F)(F)F)n4n3)C2)c1` (stereo not shown) [Example 334] the DC50 was 1.1 µM. `FC(F)(F)c1ccc(C2CCN(c3ccc4nnc(C(F)(F)Cl)n4n3)C2)cc1` (stereo not shown) [Example 335] was tested, and the DC50 was 1.5 µM. `FC(F)(F)c1cccc(C2CCN(c3ccc4nnc(C(F)(F)Cl)n4n3)C2)c1` (stereo not shown) [Example 336] showed a DC50 of 2.4 µM. With `FC(F)(Cl)c1nnc2ccc(N3CCN(c4c(Cl)cncc4Cl)CC3)nn12` [Example 339, 3-[chloro(difluoro)methyl]-6-[4-(3,5-dichloropyridin-4-yl)piperazin-1-yl][1,2,4]triazolo[4,3-b]pyridazine] the DC50 was 0.77 µM. For `N#Cc1ccc(CN2CCN(c3ccc4nnc(C(F)(F)Cl)n4n3)CC2)cc1` [Example 342], the DC50 was 2.1 µM. `N#Cc1cccc(CN2CCN(c3ccc4nnc(C(F)(F)Cl)n4n3)CC2)c1` [Example 343] showed a DC50 of 1.7 µM. `FC(F)(Cl)c1nnc2ccc(N3CCN(Cc4cccc(Br)c4)CC3)nn12` [Example 344] showed a DC50 of 0.29 µM. Work on `Fc1cccc(CN2CCN(c3ccc4nnc(C(F)(F)Cl)n4n3)CC2)c1` [Example 345] yielded a DC50 of 1.1 µM. `FC(F)(F)c1cccc(CN2CCN(c3ccc4nnc(C(F)(F)Cl)n4n3)CC2)c1` [Example 346] was tested, and the DC50 was 8.5 µM. Molecule `FC(F)(F)c1cccc(CN2CCN(c3ccc4nnc(C(F)(F)Cl)n4n3)CC2)c1` [Example 347] has a DC50 of 0.97 µM. With `FC(F)(Cl)c1nnc2ccc(N3CCN(Cc4ccc(Br)cc4)CC3)nn12` [Example 348] the DC50 was 1 µM. In the case of `FC(F)(Cl)c1nnc2ccc(N3CCN(CCc4ccccc4)CC3)nn12` [Example 349, 3-[chloro(difluoro)methyl]-6-[4-(2-phenylethyl)piperazin-1-yl][1,2,4]triazolo[4,3-b]pyridazine], the DC50 is reported as 1.7 µM. `CC(c1ccccc1)N1CCN(c2ccc3nnc(C(F)(F)Cl)n3n2)CC1` (stereo not shown) [Example 350, 3-[chloro(difluoro)methyl]-6-[4-(1-Phenylethyl)piperazin-1-yl][1,2,4]triazolo[4,3-b]pyridazine] gave a DC50 of 0.74 µM.
